Laboratory results published in US9611275B2 (priority 2012, dated 2017).

Test: Assay for determination of apparent permeability (Papp), bi-directional transport
Settings: pig, LLC-PK1

Compound	Papp at 3 h, 1 μM
CN(C)C1=N[C@@H]2[C@@H](O)[C@H](O)[C@@H]([C@H](OCc3cccc(F)c3)C(F)(F)F)O[C@@H]2S1 [Example 63, (3aR,5S,6S,7R,7aR)-2-(dimethylamino)-5-((S)-2,2,2-trifluoro-1-(3-fluorobenzyloxy)ethyl)-5,6,7,7a-tetrahydro-3aH-pyrano[3,2-d]thiazole-6,7-diol]	31.2 ×10⁻⁶ cm/s
CN(C)C1=N[C@@H]2[C@@H](O)[C@H](O)[C@@H]([C@@H](OCc3cccc(C(F)(F)F)c3)C(F)(F)F)O[C@@H]2S1 [Example 67, (3aR,5S,6S,7R,7aR)-2-(dimethylamino)-5-((R)-2,2,2-trifluoro-1-(3-(trifluoromethyl)benzyloxy)ethyl)-5,6,7,7a-tetrahydro-3aH-pyrano[3,2-d]thiazole-6,7-diol]	29.5 ×10⁻⁶ cm/s
CN(C)C1=N[C@@H]2[C@@H](O)[C@H](O)[C@@H]([C@@H](OCc3ccccc3C(F)(F)F)C(F)(F)F)O[C@@H]2S1 [Example 68, (3aR,5S,6S,7R,7aR)-2-(dimethylamino)-5-((R)-2,2,2-trifluoro-1-(2-(trifluoromethyl)benzyloxy)ethyl)-5,6,7,7a-tetrahydro-3aH-pyrano[3,2-d]thiazole-6,7-diol]	34.1 ×10⁻⁶ cm/s
CN(C)C1=N[C@@H]2[C@@H](O)[C@H](O)[C@@H]([C@@H](OCc3ccc(CF)cc3)C(F)(F)F)O[C@@H]2S1 [Example 69, (3aR,5S,6S,7R,7aR)-2-(dimethylamino)-5-((R)-2,2,2-trifluoro-1-(4-(fluoromethyl)benzyloxy)ethyl)-5,6,7,7a-tetrahydro-3aH-pyrano[3,2-d]thiazole-6,7-diol]	31.1 ×10⁻⁶ cm/s
CCN(C)C1=N[C@@H]2[C@@H](O)[C@H](O)[C@@H]([C@H](OC)C(F)(F)F)O[C@@H]2S1 [Example 72, (3aR,5S,6S,7R,7aR)-2-(ethyl(methyl)amino)-5-((S)-2,2,2-trifluoro-1-methoxyethyl)-5,6,7,7a-tetrahydro-3aH-pyrano[3,2-d]thiazole-6,7-diol]	25.4 ×10⁻⁶ cm/s
CCN(C)C1=N[C@@H]2[C@@H](O)[C@H](O)[C@@H]([C@@H](OC)C(F)(F)F)O[C@@H]2S1 [Example 73, (3aR,5S,6S,7R,7aR)-2-(ethyl(methyl)amino)-5-((R)-2,2,2-trifluoro-1-methoxyethyl)-5,6,7,7a-tetrahydro-3aH-pyrano[3,2-d]thiazole-6,7-diol]	19.9 ×10⁻⁶ cm/s
CNC1=N[C@@H]2[C@@H](O)[C@H](O)[C@@H]([C@@H](OCCC3CCCCC3)C(F)(F)F)O[C@@H]2S1 [Example 80, (3aR,5S,6S,7R,7aR)-5-((R)-1-(2-cyclohexylethoxy)-2,2,2-trifluoroethyl)-2-(methylamino)-5,6,7,7a-tetrahydro-3aH-pyrano[3,2-d]thiazole-6,7-diol]	28.5 ×10⁻⁶ cm/s
CNC1=N[C@@H]2[C@@H](O)[C@H](O)[C@@H]([C@@H](OCCCc3ccc(F)cc3)C(F)(F)F)O[C@@H]2S1 [Example 83, (3aR,5S,6S,7R,7aR)-2-(methylamino)-5-((R)-2,2,2-trifluoro-1-(3-(4-fluorophenyl)propoxy)ethyl)-5,6,7,7a-tetrahydro-3aH-pyrano[3,2-d]thiazole-6,7-diol]	29.7 ×10⁻⁶ cm/s
CNC1=N[C@@H]2[C@@H](O)[C@H](O)[C@@H]([C@@H](OCc3ccccc3)C(F)(F)F)O[C@@H]2S1 [Example 84, (3aR,5S,6S,7R,7aR)-5-((R)-1-(benzyloxy)-2,2,2-trifluoroethyl)-2-(methylamino)-5,6,7,7a-tetrahydro-3aH-pyrano[3,2-d]thiazole-6,7-diol]	27 ×10⁻⁶ cm/s
CCc1ccc(CO[C@H]([C@H]2O[C@@H]3SC(NC)=N[C@@H]3[C@@H](O)[C@@H]2O)C(F)(F)F)cc1 [Example 86, (3aR,5S,6S,7R,7aR)-5-((R)-1-(4-ethylbenzyloxy)-2,2,2-trifluoroethyl)-2-(methylamino)-5,6,7,7a-tetrahydro-3aH-pyrano[3,2-d]thiazole-6,7-diol]	29.9 ×10⁻⁶ cm/s
CNC1=N[C@@H]2[C@@H](O)[C@H](O)[C@@H]([C@@H](OCc3ccccc3C(F)(F)F)C(F)(F)F)O[C@@H]2S1 [Example 93, (3aR,5S,6S,7R,7aR)-2-(methylamino)-5-((R)-2,2,2-trifluoro-1-(2-(trifluoromethyl)benzyloxy)ethyl)-5,6,7,7a-tetrahydro-3aH-pyrano[3,2-d]thiazole-6,7-diol]	29.2 ×10⁻⁶ cm/s
CNC1=N[C@@H]2[C@@H](O)[C@H](O)[C@@H]([C@@H](OCc3ccc(C(F)(F)F)cc3)C(F)(F)F)O[C@@H]2S1 [Example 94, (3aR,5S,6S,7R,7aR)-2-(mcthylamino)-5-((R)-2,2,2-trifluoro-1-(4-(trifluoromethyl)benzyloxy)ethyl)-5,6,7,7a-tetrahydro-3aH-pyrano[3,2-d]thiazole-6,7-diol]	24.6 ×10⁻⁶ cm/s
CNC1=N[C@@H]2[C@@H](O)[C@H](O)[C@@H]([C@@H](OCc3ccc(OC)cc3)C(F)(F)F)O[C@@H]2S1 [Example 97, 2-(methylamino)-5-(2,2,2-trifluoro-1-(4-methoxybenzyloxy)ethyl)-5,6,7,7a-tetrahydro-3aH-pyrano[3,2-d]thiazole-6,7-diol]	24.7 ×10⁻⁶ cm/s
CNC1=N[C@@H]2[C@@H](O)[C@H](O)[C@@H]([C@@H](OCc3ccc(OC)c(C(F)(F)F)c3)C(F)(F)F)O[C@@H]2S1 [Example 98, (3aR,5S,6S,7R,7aR)-2-(methylamino)-5-((R)-2,2,2-trifluoro-1-(4-methoxy-3-(trifluoromethyl)benzyloxy)ethyl)-5,6,7,7a-tetrahydro-3aH-pyrano[3,2-d]thiazole-6,7-diol]	29.1 ×10⁻⁶ cm/s
CNC1=N[C@@H]2[C@@H](O)[C@H](O)[C@@H]([C@@H](OCc3ccc(Oc4ccccc4)cc3)C(F)(F)F)O[C@@H]2S1 [Example 99, (3aR,5S,6S,7R,7aR)-2-(methylamino)-5-((R)-2,2,2-trifluoro-1-(4-phenoxybenzyloxy)ethyl)-5,6,7,7a-tetrahydro-3aH-pyrano[3,2-d]thiazole-6,7-diol]	21.7 ×10⁻⁶ cm/s
CCc1cc(CO[C@H]([C@H]2O[C@@H]3SC(NC)=N[C@@H]3[C@@H](O)[C@@H]2O)C(F)(F)F)ccc1OC [Example 100, (3aR,5S,6S,7R,7aR)-5-((R)-1-(3-ethyl-4-methoxybenzyloxy)-2,2,2-trifluoroethyl)-2-(methylamino)-5,6,7,7a-tetrahydro-3aH-pyrano[3,2-d]thiazole-6,7-diol]	28.1 ×10⁻⁶ cm/s
CNC1=N[C@@H]2[C@@H](O)[C@H](O)[C@@H]([C@@H](OCc3cc(C)c(OC)c(C)c3)C(F)(F)F)O[C@@H]2S1 [Example 101, (3aR,5S,6S,7R,7aR)-2-(methylamino)-5-((R)-2,2,2-trifluoro-1-(4-methoxy-3,5-dimethylbenzyloxy)ethyl)-5,6,7,7a-tetrahydro-3aH-pyrano[3,2-d]thiazole-6,7-diol]	28.9 ×10⁻⁶ cm/s
CN(C)C1=N[C@@H]2[C@@H](O)[C@H](O)[C@@H]([C@@H](Oc3ccccc3)C(F)(F)F)O[C@@H]2S1 [Example 107, (3aR,5S,6S,7R,7aR)-2-(dimethylamino)-5-((R)-2,2,2-trifluoro-1-phenoxyethyl)-5,6,7,7a-tetrahydro-3aH-pyrano[3,2-d]thiazole-6,7-diol]	31.3 ×10⁻⁶ cm/s
COc1ccc(CO[C@@H](C)[C@H]2O[C@@H]3SC(N(C)C)=N[C@@H]3[C@@H](O)[C@@H]2O)cc1 [Example 109, (3aR,5S,6S,7R,7aR)-2-(dimethylamino)-5-((S)-1-(4-methoxybenzyloxy)ethyl)-5,6,7,7a-tetrahydro-3aH-pyrano[3,2-d]thiazole-6,7-diol]	26.3 ×10⁻⁶ cm/s
